Source: patent publication US20230399312A1, “SUBSTITUTED PYRIMIDINES AND METHODS OF USE” (THERAVANCE BIOPHARMA R&D IP, LLC, priority 2020, published 2023)

Tests used:
[1] = tested on: TGF-β-stimulated SMAD3 phosphorylation in BEAS-2B cells; assay: Cellular ALK5 potency assay, inhibition of TGF-β stimulated pSMAD3 formation in BEAS-2B cells; format: cell-based; conditions: Homo sapiens, pSMAD3, TGF-β 10 ng/mL, read-out: BEAS2B pIC50 (converted)
Outline: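 Human lung epithelial BEAS-2B cells were pre-treated with compound for 1 h at 37 °C, then stimulated with TGF-β (final 10 ng/mL) for 30 min before lysis. pSMAD3 was quantified by AlphaLISA and pIC50 derived from dose-dependent signal change versus TGF-β-stimulated untreated cells.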

[2] = molecular target: T1, recombinant human ALK5 (TGF-βR1) protein (Homo sapiens, UniProt P36897); assay: Biochemical ALK5 (TGF-βR1) assay to measure pKi (LANCE Ultra ULight kinase assay); conditions: apparent pKi, converted from pIC50 by Cheng-Prusoff
T1 construct: purchased Life Technologies PR9075A
T1 sequence (P36897 34-503): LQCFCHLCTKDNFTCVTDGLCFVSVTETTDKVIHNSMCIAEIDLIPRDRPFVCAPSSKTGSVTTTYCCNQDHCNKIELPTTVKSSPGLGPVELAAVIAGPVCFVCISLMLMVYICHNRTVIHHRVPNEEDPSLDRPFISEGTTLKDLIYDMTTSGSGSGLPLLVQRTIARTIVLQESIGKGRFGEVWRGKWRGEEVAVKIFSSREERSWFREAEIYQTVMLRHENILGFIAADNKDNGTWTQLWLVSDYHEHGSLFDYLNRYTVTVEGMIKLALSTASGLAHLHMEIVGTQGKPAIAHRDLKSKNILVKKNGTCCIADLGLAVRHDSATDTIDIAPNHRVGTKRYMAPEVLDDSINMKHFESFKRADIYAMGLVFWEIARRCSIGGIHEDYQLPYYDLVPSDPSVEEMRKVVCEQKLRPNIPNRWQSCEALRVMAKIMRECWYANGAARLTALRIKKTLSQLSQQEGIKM
Outline: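 Dose-response series of each compound were preincubated with the kinase for 60 minutes at room temperature. Phosphorylation proceeded for 60 minutes at 37 °C after ATP addition, was quenched with EDTA, and was detected with a europium anti-phospho-Thr1342 antibody by TR-FRET; pKi was calculated from pIC50.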

Ki [2] | SMILES | IC50 [1]
0.0398 to 0.316 nM | Cc1cccc(-c2nc(Nc3ccnc(Nc4ccc(NC(=O)C5CCNCC5)cc4)n3)c3cccn3n2)n1 [Compound 1028, N-[4-[[4-[[2-(6-methyl-2-pyridyl)pyrrolo[2,1-f][1,2,4]triazin-4-yl]amino]pyrimidin-2-yl]amino]phenyl]piperidine-4-carboxamide] | 25.1 to 158 nM
0.0398 to 0.316 nM | Cc1cccc(-c2nccc(Nc3ccnc(Nc4ccc(C(=O)OCCC5CCNCC5)nc4)n3)n2)n1 [Compound 558, 2-(4-piperidyl)ethyl 5-[[4-[[2-(6-methyl-2-pyridyl)pyrimidin-4-yl]amino]pyrimidin-2-yl]amino]pyridine-2-carboxylate] | 25.1 to 158 nM
0.0398 to 0.316 nM | Cc1cccc(-c2nccc(Nc3ccnc(Nc4ccc(CN5CC6CCC(C5)O6)cc4)n3)n2)n1 [Compound 395, N4-[2-(6-methyl-2-pyridyl)pyrimidin-4-yl]-N2-[4-(8-oxa-3-azabicyclo[3.2.1]octan-3-ylmethyl)phenyl]pyrimidine-2,4-diamine] | 25.1 to 158 nM
0.0398 to 0.316 nM | Cc1cccc(-c2nccc(Nc3ccnc(Nc4ccc(CN5CCNC(C(=O)OCC(C)C)C5)cc4)n3)n2)n1 (stereo not shown) [Compound 523, isobutyl 4-[[4-[[4-[[2-(6-methyl-2-pyridyl)pyrimidin-4-yl]amino]pyrimidin-2-yl]amino]phenyl]methyl] piperazine-2-carboxylate] | ≤ 20 nM
0.398 to 3.16 nM | Cc1cccc(-c2nccc(Nc3ccnc(Nc4cccc(C(=O)O)c4)n3)n2)n1 [Compound 423, 3-[[4-[[2-(6-methyl-2-pyridyl)pyrimidin-4-yl]amino]pyrimidin-2-yl]amino]benzoic acid] | 1580 to 10000 nM
3.98 to 31.6 nM | Cc1cccc(-c2nccc(Nc3ccnc(Nc4ncc(C(=O)OC[C@@H]5CCNC5)s4)n3)n2)n1 [Compound 630, [(3R)-pyrrolidin-3-yl]methyl 2-[[4-[[2-(6-methyl-2-pyridyl)pyrimidin-4-yl]amino]pyrimidin-2-yl]amino]thiazole-5-carboxylate] | 200 to 1260 nM
0.398 to 3.16 nM | Cc1cccc(-c2nccc(Nc3ccnc(Nc4ccc5[nH]nnc5c4)n3)n2)n1 [Compound 512, N2-(1H-benzotriazol-5-yl)-N4-[2-(6-methyl-2-pyridyl)pyrimidin-4-yl]pyrimidine-2,4-diamine] | 25.1 to 158 nM
0.0398 to 0.316 nM | Cc1cccc(-c2nccc(Nc3ccnc(Nc4ccc(CN5CCCC(C(=O)NC6CCNC6)C5)cc4)n3)n2)n1 (racemic) [Compound 456, 1-[[4-[[4-[[2-(6-methyl-2-pyridyl)pyrimidin-4-yl]amino]pyrimidin-2-yl]amino]phenyl]methyl]-N-[rac-(3R)-pyrrolidin-3-yl]piperidine-3-carboxamide] | 25.1 to 158 nM
0.0398 to 0.316 nM | Cc1cccc(-c2nccc(Nc3ccnc(Nc4csc(C(=O)O[C@H]5CC[C@](C)(N)CC5)c4)n3)n2)n1 [Compound 572, (4-amino-4-methyl-cyclohexyl) 4-[[4-[[2-(6-methyl-2-pyridyl)pyrimidin-4-yl]amino]pyrimidin-2-yl]amino]thiophene-2-carboxylate] | 25.1 to 158 nM

Continued, molecule first:

SMILES | Ki [2] | IC50 [1]
Cc1cccc(-c2nccc(Nc3ccnc(Nc4ccc(C5CCNCC5)cn4)n3)n2)n1 [Compound 114, N4-[2-(6-methyl-2-pyridyl)pyrimidin-4-yl]-N2-[5-(4-piperidyl)-2-pyridyl]pyrimidine-2,4-diamine] | 0.398 to 3.16 nM | 200 to 1260 nM
Cc1cccc(-c2nccc(Nc3ccnc(Nc4ccc5[nH]ncc5c4)n3)n2)n1 [Compound 284, N2-(1H-indazol-5-yl)-N4-[2-(6-methyl-2-pyridyl)pyrimidin-4-yl]pyrimidine-2,4-diamine] | 0.398 to 3.16 nM | ≤ 20 nM
Cc1cccc(-c2nccc(Nc3ccnc(Nc4ccc(CN5CC(O)C5)cc4)n3)n2)n1 [Compound 131, 1-[[4-[[4-[[2-(6-methyl-2-pyridyl)pyrimidin-4-yl]amino]pyrimidin-2-yl]amino]phenyl]methyl] azetidin-3-ol] | 0.0398 to 0.316 nM | 25.1 to 158 nM
Cc1cccc(-c2nccc(Nc3ccnc(Nc4ccc(N5CCNCC5)c(CC(=O)OCC(C)C)c4)n3)n2)n1 [Compound 205, isobutyl 2-[5-[[4-[[2-(6-methyl-2-pyridyl)pyrimidin-4-yl]amino]pyrimidin-2-yl]amino]-2-piperazin-1-yl-phenyl]acetate] | 0.0398 to 0.316 nM | 25.1 to 158 nM
Cc1cccc(-c2nccc(Nc3ccnc(Nc4ccc(N5CCC(CNCc6ccccn6)CC5)cc4)n3)n2)n1 [Compound 219, N4-[2-(6-methyl-2-pyridyl)pyrimidin-4-yl]-N2-[4-[4-[(2-pyridylmethylamino)methyl]-1-piperidyl]phenyl]pyrimidine-2,4-diamine] | 0.0398 to 0.316 nM | 25.1 to 158 nM
Cc1cccc(-c2nccc(Nc3ccnc(Nc4ccc(C(=O)O[C@H]5CCN(C)C5)cc4)n3)n2)n1 [Compound 51, [(3S)-1-methylpyrrolidin-3-yl] 4-[[4-[[2-(6-methyl-2-pyridyl)pyrimidin-4-yl]amino]pyrimidin-2-yl]amino]benzoate] | 0.0398 to 0.316 nM | 25.1 to 158 nM
Cc1cccc(-c2nccc(Nc3ccnc(Nc4ccc(NS(=O)(=O)C5CCNCC5)cc4)n3)n2)n1 [Compound 229, N-[4-[[4-[[2-(6-methyl-2-pyridyl)pyrimidin-4-yl]amino]pyrimidin-2-yl]amino]phenyl]piperidine-4-sulfonamide] | 0.0398 to 0.316 nM | 25.1 to 158 nM
Cc1cccc(-c2nccc(Nc3ccnc(Nc4ccc(N5CCNCC5C)cc4)n3)n2)n1 (racemic) [Compound 216, N4-[2-(6-methyl-2-pyridyl)pyrimidin-4-yl]-N2-[4-[rac-(2S)-2-methylpiperazin-1-yl]phenyl]pyrimidine-2,4-diamine] | 0.0398 to 0.316 nM | 25.1 to 158 nM
Cc1cccc(-c2nccc(Nc3ccnc(Nc4ccc(N5CCCC(C(=O)OC6CNC6)C5)cc4)n3)n2)n1 (stereo not shown) [Compound 173, azetidin-3-yl 1-[4-[[4-[[2-(6-methyl-2-pyridyl)pyrimidin-4-yl]amino]pyrimidin-2-yl]amino]phenyl]piperidine-3-carboxylate] | 0.0398 to 0.316 nM | 25.1 to 158 nM
CNC(=O)[C@@H]1CN(c2ccc(Nc3nccc(Nc4ccnc(-c5cccc(C)n5)n4)n3)cc2)CCN1 [Compound 367, (2S)-N-methyl-4-[4-[[4-[[2-(6-methyl-2-pyridyl)pyrimidin-4-yl]amino]pyrimidin-2-yl]amino]phenyl]piperazine-2-carboxamide] | 0.0398 to 0.316 nM | 25.1 to 158 nM
Cc1cccc(-c2nccc(Nc3ccnc(Nc4ccc(CN(C)C)cc4)n3)n2)n1 [Compound 24, N2-[4-[(dimethylamino)methyl]phenyl]-N4-[2-(6-methyl-2-pyridyl)pyrimidin-4-yl]pyrimidine-2,4-diamine] | ≤ 0.0316 nM | 25.1 to 158 nM
Cc1cccc(-c2nccc(Nc3ccnc(Nc4ccc(N5CCC(N)C5)cc4)n3)n2)n1 (stereo not shown) [Compound 289, N2-[4-(3-aminopyrrolidin-1-yl)phenyl]-N4-[2-(6-methyl-2-pyridyl)pyrimidin-4-yl]pyrimidine-2,4-diamine] | 0.0398 to 0.316 nM | 25.1 to 158 nM
Cc1cccc(-c2nccc(Nc3ccnc(Nc4csc(C(=O)NCC5CNC5)c4)n3)n2)n1 [Compound 89, N-(azetidin-3-ylmethyl)-4-[[4-[[2-(6-methyl-2-pyridyl)pyrimidin-4-yl]amino]pyrimidin-2-yl]amino]thiophene-2-carboxamide] | ≤ 0.0316 nM | ≤ 20 nM
Cc1cccc(-c2nccc(Nc3ccnc(Nc4ccc(CN5CCN[C@H](C(=O)O)C5)cc4)n3)n2)n1 [Compound 283, (2S)-4-[[4-[[4-[[2-(6-methyl-2-pyridyl)pyrimidin-4-yl]amino]pyrimidin-2-yl]amino]phenyl]methyl] piperazine-2-carboxylic acid] | 0.0398 to 0.316 nM | 200 to 1260 nM
COCCOc1ccc(Nc2nccc(Nc3ccnc(-c4cccc(C)n4)n3)n2)cc1 [Compound 250, N2-[4-(2-methoxyethoxy)phenyl]-N4-[2-(6-methyl-2-pyridyl)pyrimidin-4-yl]pyrimidine-2,4-diamine] | 0.398 to 3.16 nM | 25.1 to 158 nM
COc1ncc(Nc2nccc(Nc3ccnc(-c4cccc(C)n4)n3)n2)cc1NS(C)(=O)=O [Compound 20, N-[2-methoxy-5-[[4-[[2-(6-methyl-2-pyridyl)pyrimidin-4-yl]amino]pyrimidin-2-yl]amino]-3-pyridyl]methanesulfonamide] | 0.398 to 3.16 nM | ≤ 20 nM
CC(=O)N1CCN(c2cccc(Nc3nccc(Nc4ccnc(-c5cccc(C)n5)n4)n3)c2)CC1 [Compound 190, 1-[4-[3-[[4-[[2-(6-methyl-2-pyridyl)pyrimidin-4-yl]amino]pyrimidin-2-yl]amino]phenyl]piperazin-1-yl]ethanone] | 0.0398 to 0.316 nM | 25.1 to 158 nM
